Test system: automated midbrain organoids (AMOs)
Experiment: 3D toxicology assay: cCasp3/Sox2 whole mount immunostaining and high content imaging of G418-treated organoids
Format: cell-based, human
Settings: AMOs treated for 4 days starting at day 50 of culture; 0-1000 μg/mL; cCasp3+ cells normalized by aggregate area
Experimental: In order to analyze protein expression in 3D in a HTS-compatible manner, we adapted a whole mount staining protocol based on Lee et al. ACT-PRESTO: Rapid and consistent tissue 579 clearing and labeling method for 3-dimensional (3D) imaging. Sci Rep 6, 18631 (2016) for organoids and optimized it for use in an automated liquid handling system. After fixation with 4% PFA (VWR) for 10-15 minutes, we stained the organoids with primary and secondary antibodies (Alexa Fluor secondary antibodies, Thermo Fisher) for 6 days each. We diluted the antibodies in a blocking and permeabilization solution (6% BSA, 0.5% Triton-X 100 (Roth), 0.1% (w/v) sodium azide (Sigma-Aldrich) in PBS (Sigma-Aldrich)) and renewed it every 2 days. Between primary and secondary antibody incubation as well as after the staining procedure we washed the organoids 5 times for 1 h with 0.1% Triton X-100 in PBS. […]
After staining and clearing, we achieved uniform aggregate positioning within the wells by tilting the plates off the horizontal plane at 60 degrees for 1 minute. Image acquisition was carried out in an Operetta high content imager (Perkin Elmer) and images were analyzed in Harmony 4.1 software. […] We excluded image artifacts, small dust particles, and overlapping nuclei by omitting nuclei brighter than 6000 abu and larger than 70 μm2 from further quantification. […]

CN[C@@H]1[C@@H](O)[C@@H](O[C@@H]2[C@@H](O)[C@H](O[C@H]3O[C@H]([C@@H](C)O)[C@@H](O)[C@H](O)[C@H]3N)[C@@H](N)C[C@H]2N)OC[C@]1(C)O [G418]
IC50 from dose-response curve of number of apoptotic cCasp3+ cells against logarithmic drug concentration: 339 μg/mL

Source: patent US20220049219A1, “AUTOMATED GENERATION AND ANALYSIS OF ORGANOIDS” (Max-Planck-Gesellschaft zur Förderung der Wissenschaften …, priority 2018, published 2022)
